Data from ChEMBL document CHEMBL3603789, “N-Lipidated Peptide Dimers: Effective Antibacterial Agents against Gram-Negative Pathogens through Lipopolysaccharide Permeabilization” (J Med Chem, 2015).
pEC50: −log10 of the molar value. In brackets after ≈: the same amount, converted by molar mass. Activity calls are given as the source filed them. The rule behind the calls is not given here. Bridge positions count the residues as written; N and C are the ends. Peptide text beside a SMILES is read from it. I, II: the chains in the order shown. * marks the point of attachment. Palmitoyl = CCCCCCCCCCCCCCCC(=O)*; Lauroyl = CCCCCCCCCCCC(=O)*; Decanoyl = CCCCCCCCCC(=O)*; Octanoyl = CCCCCCCC(=O)*

What was measured:
Klebsiella pneumoniae [1] = assay: Antibacterial activity against Klebsiella pneumoniae DM4299 after 24 hrs by broth microdilution method; format: functional; details: DM4299, 24 h
[2] = Toxicity in New Zealand white rabbit erythrocytes assessed as hemolytic activity after 60 mins; format: cell-based, Oryctolagus cuniculus; details: erythrocyte, 1 h
Escherichia coli [3] = assay: Antibacterial activity against Escherichia coli ATCC 25922 after 24 hrs by broth microdilution method; format: functional; details: ATCC 25922, 24 h
Pseudomonas aeruginosa [4] = assay: Induction of cytoplasmic membrane depolarization in Pseudomonas aeruginosa DM23155 at 4 times MIC after 1 hr by fluorescence assay; format: functional, organism-based
Pseudomonas aeruginosa [5] = assay: Antibacterial activity against Pseudomonas aeruginosa DM23155 after 24 hrs by broth microdilution method; format: functional; details: DM23155, 24 h
[6] = Induction of calcein leakage from DOPE/DOPG artificial membrane at 1:32 ratio of compound to lipid by fluorescence assay; format: physicochemical
[7] = Self-aggregation activity of the compound using 8-(Phenylamino)-1-naphthalenesulfonic acid as fluorescent probe at 300 uM by fluorescence assay; format: physicochemical
[8] = Induction of calcein leakage from DOPC artificial membrane at 1:32 ratio of compound to lipid by fluorescence assay; format: physicochemical
Lipopolysaccharide (LPS) [9] = assay: Displacement of dansylcadaverine from Escherichia coli 0111:B4 LPS at 15 to 30 uM after 5 mins by high-throughput fluorescence displacement assay
Lipopolysaccharide (LPS) [10] = assay: Induction of Escherichia coli 0111:B4 LPS neutralization using p-nitroaniline assessed as concentration required to neutralize 50% after 1 hr by limulus amebocyte lysate assay
Pseudomonas aeruginosa [11] = assay: Induction of cytoplasmic membrane disruption in Pseudomonas aeruginosa DM23155 assessed as membrane integrity at 1 to 2 times MIC after 1 hr by fluorescence assay; format: functional
Pseudomonas aeruginosa [12] = assay: Antibacterial activity against Pseudomonas aeruginosa DM23257 after 24 hrs by broth microdilution method; format: functional
Pseudomonas aeruginosa [13] = assay: Antibacterial activity against Pseudomonas aeruginosa DU14476 after 24 hrs by broth microdilution method; format: functional
Pseudomonas aeruginosa [14] = assay: Antibacterial activity against Pseudomonas aeruginosa ATCC 27853 after 24 hrs by broth microdilution method; format: functional
Pseudomonas aeruginosa [15] = assay: Antibacterial activity against Pseudomonas aeruginosa DR4877 after 24 hrs by broth microdilution method; format: functional
Pseudomonas aeruginosa [16] = assay: Antibacterial activity against Pseudomonas aeruginosa ATCC 9027 after 24 hrs by broth microdilution method; format: functional
Pseudomonas aeruginosa [17] = assay: Antibacterial activity against Pseudomonas aeruginosa DM4150R after 24 hrs by broth microdilution method; format: functional
Pseudomonas aeruginosa [18] = assay: Antibacterial activity against Pseudomonas aeruginosa DR18531 after 24 hrs by broth microdilution method; format: functional
Pseudomonas aeruginosa [19] = assay: Antibacterial activity against Pseudomonas aeruginosa DR5790 after 24 hrs by broth microdilution method; format: functional
Pseudomonas aeruginosa [20] = assay: Antibacterial activity against Pseudomonas aeruginosa DM23376 after 24 hrs by broth microdilution method; format: functional
Pseudomonas aeruginosa [21] = assay: Induction of 1-N-phenylnaphthylamine uptake in Pseudomonas aeruginosa DM23155 at 400 uM after 1 hr by fluorescence assay relative to polymyxin B; format: functional
Klebsiella pneumoniae [22] = assay: Antibacterial activity against Klebsiella pneumoniae DB55301 after 24 hrs by broth microdilution method; format: functional
Klebsiella pneumoniae [23] = assay: Antibacterial activity against Klebsiella pneumoniae DS16260 after 24 hrs by broth microdilution method; format: functional
Klebsiella pneumoniae [24] = assay: Antibacterial activity against Klebsiella pneumoniae DS07955 after 24 hrs by broth microdilution method; format: functional
Escherichia coli [25] = assay: Antibacterial activity against Escherichia coli DS17232 after 24 hrs by broth microdilution method; format: functional
Klebsiella pneumoniae [26] = assay: Antibacterial activity against Klebsiella pneumoniae DU31158 after 24 hrs by broth microdilution method; format: functional
Escherichia coli [27] = assay: Antibacterial activity against Escherichia coli DM17528 after 24 hrs by broth microdilution method; format: functional

Molecule	MIC (Klebsiella pneumoniae [1]) [µM]	HC10 [2] [µg/mL]	MIC (Escherichia coli [3]) [µM]	MIC (Pseudomonas aeruginosa [5]) [µM]	Activity [7]	Activity [8]	Activity (Lipopolysaccharide (LPS) [9]) [%]	pEC50 (Lipopolysaccharide (LPS) [10])	MIC (Pseudomonas aeruginosa [17]) [µM]	other results
CCCCCCCC(=O)N[C@@H](CCCNC(=N)N)C(=O)NCC(=O)N[C@@H](CCCNC(=N)N)C(=O)N[C@@H](CCCCN)C(=O)NCC(=O)NCC(=O)N[C@@H](CCCNC(=N)N)C(=O)N[C@@H](CCCNC(=N)N)C(=O)N[C@@H](CCCCN)C(=O)N[C@@H](CCCCN)C(=O)O (Octanoyl-RGRKGGRRKK-OH)	40 (≈ 53 µg/mL)	> 10000	6 (≈ 7.95 µg/mL)	10 (≈ 13.2 µg/mL)	–	–	–	–	–	Activity (Pseudomonas aeruginosa [4]): Active
CCCCCCCCCCCC(=O)N[C@@H](CCCNC(=N)N)C(=O)NCC(=O)N[C@@H](CCCNC(=N)N)C(=O)N[C@@H](CCCCN)C(=O)N[C@H](C(=O)N[C@H](C(=O)N[C@@H](CCCNC(=N)N)C(=O)N[C@@H](CCCNC(=N)N)C(=O)NCCCC[C@H](NC(=O)[C@H](CCCNC(=N)N)NC(=O)[C@H](CCCNC(=N)N)NC(=O)[C@@H](NC(=O)[C@@H](NC(=O)[C@H](CCCCN)NC(=O)[C@H](CCCNC(=N)N)NC(=O)CNC(=O)[C@H](CCCNC(=N)N)NC(=O)CCCCCCCCCCC)C(C)C)C(C)C)C(=O)N[C@@H](CCCCN)C(=O)O)C(C)C)C(C)C (I: Lauroyl-RGRKVVRRKK-OH / II: Lauroyl-RGRKVVRR; amide I:9-II:C)	6 (≈ 15.9 µg/mL)	543	6 (≈ 15.9 µg/mL)	6 (≈ 15.9 µg/mL)	27.6%	Active	130	4.54	–	Activity [6]: Active; Activity (Pseudomonas aeruginosa [4]): Active; Activity (Pseudomonas aeruginosa [11]): <50%
CCCCCCCCCCCCCCCC(=O)N[C@@H](CCCNC(=N)N)C(=O)NCC(=O)N[C@@H](CCCNC(=N)N)C(=O)N[C@@H](CCCCN)C(=O)N[C@H](C(=O)N[C@H](C(=O)N[C@@H](CCCNC(=N)N)C(=O)N[C@@H](CCCNC(=N)N)C(=O)N[C@@H](CCCCN)C(=O)N[C@@H](CCCCN)C(=O)O)C(C)C)C(C)C (Palmitoyl-RGRKVVRRKK-OH)	40 (≈ 60.8 µg/mL)	5481	10 (≈ 15.2 µg/mL)	80 (≈ 122 µg/mL)	Not Active	–	–	–	–	–
CCCCCCCCCCCCCCCC(=O)N[C@@H](CCCNC(=N)N)C(=O)NCC(=O)N[C@@H](CCCNC(=N)N)C(=O)N[C@@H](CCCCN)C(=O)NCC(=O)NCC(=O)N[C@@H](CCCNC(=N)N)C(=O)N[C@@H](CCCNC(=N)N)C(=O)N[C@@H](CCCCN)C(=O)N[C@@H](CCCCN)C(=O)O (Palmitoyl-RGRKGGRRKK-OH)	80 (≈ 115 µg/mL)	5064	10 (≈ 14.4 µg/mL)	80 (≈ 115 µg/mL)	Not Active	–	–	–	–	–
COc1c(N2CCNC(C)C2)c(F)cc2c(=O)c(C(=O)O)cn(C3CC3)c12 (stereo not given) [GATIFLOXACIN]	–	–	–	–	–	–	–	–	2 (≈ 0.751 µg/mL)	MIC (Pseudomonas aeruginosa [12]; DM23257, 24 h): 2 µM (≈ 0.751 µg/mL); MIC (Pseudomonas aeruginosa [13]; DU14476, 24 h): 64 µM (≈ 24 µg/mL); MIC (Pseudomonas aeruginosa [14]; ATCC 27853, 24 h): 4 µM (≈ 1.5 µg/mL); MIC (Pseudomonas aeruginosa [15]; DR4877, 24 h): 32 µM (≈ 12 µg/mL); MIC (Pseudomonas aeruginosa [16]; ATCC 9027, 24 h): 2 µM (≈ 0.751 µg/mL); MIC (Pseudomonas aeruginosa [18]; DR18531, 24 h): 8 µM (≈ 3 µg/mL); MIC (Pseudomonas aeruginosa [19]; DR5790, 24 h): 64 µM (≈ 24 µg/mL); MIC (Pseudomonas aeruginosa [20]; DM23376, 24 h): 4 µM (≈ 1.5 µg/mL)
CCCCCCCCCCCC(=O)N[C@@H](CCCNC(=N)N)C(=O)NCC(=O)N[C@@H](CCCNC(=N)N)C(=O)N[C@@H](CCCCN)C(=O)NCC(=O)NCC(=O)N[C@@H](CCCNC(=N)N)C(=O)N[C@@H](CCCNC(=N)N)C(=O)NCCCC[C@H](NC(=O)[C@H](CCCNC(=N)N)NC(=O)[C@H](CCCNC(=N)N)NC(=O)CNC(=O)CNC(=O)[C@H](CCCCN)NC(=O)[C@H](CCCNC(=N)N)NC(=O)CNC(=O)[C@H](CCCNC(=N)N)NC(=O)CCCCCCCCCCC)C(=O)N[C@@H](CCCCN)C(=O)O (I: Lauroyl-RGRKGGRRKK-OH / II: Lauroyl-RGRKGGRR; amide I:9-II:C)	6 (≈ 14.9 µg/mL)	517	6 (≈ 14.9 µg/mL)	6 (≈ 14.9 µg/mL)	62.5%	Active	126	4.20	–	Activity (Pseudomonas aeruginosa [21]): 55.9%
C[C@H]1COc2c(N3CCN(C)CC3)c(F)cc3c(=O)c(C(=O)O)cn1c23 [LEVOFLOXACIN]	–	–	–	–	–	–	–	–	–	MIC (Klebsiella pneumoniae [22]; DB55301, 24 h): 80 µM (≈ 28.9 µg/mL); MIC (Klebsiella pneumoniae [23]; DS16260, 24 h): 10 µM (≈ 3.61 µg/mL); MIC (Klebsiella pneumoniae [24]; DS07955, 24 h): > 100 µM; MIC (Escherichia coli [25]; DS17232, 24 h): 20 µM (≈ 7.23 µg/mL); MIC (Klebsiella pneumoniae [26]; DU31158, 24 h): 0.03 µM (≈ 0.0108 µg/mL); MIC (Escherichia coli [27]; DM17528, 24 h): 80 µM (≈ 28.9 µg/mL)
CC(=O)N[C@@H](CCCNC(=N)N)C(=O)NCC(=O)N[C@@H](CCCNC(=N)N)C(=O)N[C@@H](CCCCN)C(=O)N[C@H](C(=O)N[C@H](C(=O)N[C@@H](CCCNC(=N)N)C(=O)N[C@@H](CCCNC(=N)N)C(=O)NCCCC[C@H](NC(=O)[C@H](CCCNC(=N)N)NC(=O)[C@H](CCCNC(=N)N)NC(=O)[C@@H](NC(=O)[C@@H](NC(=O)[C@H](CCCCN)NC(=O)[C@H](CCCNC(=N)N)NC(=O)CNC(=O)[C@H](CCCNC(=N)N)NC(C)=O)C(C)C)C(C)C)C(=O)N[C@@H](CCCCN)C(=O)O)C(C)C)C(C)C (I: Ac-RGRKVVRRKK-OH / II: Ac-RGRKVVRR; amide I:9-II:C)	6 (≈ 14.2 µg/mL)	> 10000	6 (≈ 14.2 µg/mL)	6 (≈ 14.2 µg/mL)	–	–	75.7	< 3.00	–	Activity [6]: Active; Activity (Pseudomonas aeruginosa [11]): >80%
CCCCCCCCCC(=O)N[C@@H](CCCNC(=N)N)C(=O)NCC(=O)N[C@@H](CCCNC(=N)N)C(=O)N[C@@H](CCCCN)C(=O)NCC(=O)NCC(=O)N[C@@H](CCCNC(=N)N)C(=O)N[C@@H](CCCNC(=N)N)C(=O)NCCCC[C@H](NC(=O)[C@H](CCCNC(=N)N)NC(=O)[C@H](CCCNC(=N)N)NC(=O)CNC(=O)CNC(=O)[C@H](CCCCN)NC(=O)[C@H](CCCNC(=N)N)NC(=O)CNC(=O)[C@H](CCCNC(=N)N)NC(=O)CCCCCCCCC)C(=O)N[C@@H](CCCCN)C(=O)O (I: Decanoyl-RGRKGGRRKK-OH / II: Decanoyl-RGRKGGRR; amide I:9-II:C)	3 (≈ 7.29 µg/mL)	> 10000	6 (≈ 14.6 µg/mL)	3 (≈ 7.29 µg/mL)	–	Active	122	3.85	6 (≈ 14.6 µg/mL)	Activity (Pseudomonas aeruginosa [21]): 44.3%; MIC (Pseudomonas aeruginosa [12]; DM23257, 24 h): 6 µM (≈ 14.6 µg/mL); MIC (Pseudomonas aeruginosa [13]; DU14476, 24 h): 3 µM (≈ 7.29 µg/mL); MIC (Pseudomonas aeruginosa [14]; ATCC 27853, 24 h): 3 µM (≈ 7.29 µg/mL); MIC (Pseudomonas aeruginosa [15]; DR4877, 24 h): 6 µM (≈ 14.6 µg/mL); MIC (Pseudomonas aeruginosa [16]; ATCC 9027, 24 h): 6 µM (≈ 14.6 µg/mL); MIC (Pseudomonas aeruginosa [18]; DR18531, 24 h): 6 µM (≈ 14.6 µg/mL); MIC (Pseudomonas aeruginosa [19]; DR5790, 24 h): 3 µM (≈ 7.29 µg/mL); MIC (Pseudomonas aeruginosa [20]; DM23376, 24 h): 6 µM (≈ 14.6 µg/mL)
GENTAMICIN	–	–	–	–	–	–	–	–	0.5	MIC (Pseudomonas aeruginosa [12]): 0.5 µM; MIC (Pseudomonas aeruginosa [13]): 25 µM; MIC (Pseudomonas aeruginosa [14]): 0.5 µM; MIC (Klebsiella pneumoniae [22]): 7.5 µM; MIC (Klebsiella pneumoniae [23]): 2 µM; MIC (Pseudomonas aeruginosa [15]): > 60 µM; MIC (Pseudomonas aeruginosa [16]): 0.25 µM; MIC (Klebsiella pneumoniae [24]): > 60 µM; MIC (Escherichia coli [25]): 1 µM; MIC (Klebsiella pneumoniae [26]): < 0.25 µM; MIC (Pseudomonas aeruginosa [18]): 30 µM; MIC (Pseudomonas aeruginosa [19]): 25 µM; MIC (Escherichia coli [27]): < 0.25 µM; MIC (Pseudomonas aeruginosa [20]): 0.5 µM
